{
  "source": "patent US20240299356A1",
  "about": "“DEVELOPMENT OF PRMT-TARGETING THERAPY TO ENHANCE EGFR-TARGETING DRUG EFFICACY IN NSCLC” (The Regents of the University of California, priority 2021, published 2024)",
  "molecules": {"B1": {"name": "IFNγ: dimerized soluble cytokine, the only member of the type II class of interferons (protein, UniProt P01579 24-161, looked up)", "Interferon gamma": "QDPYVKEAENLKKYFNAGHSDVADNGTLFLGILKNWKEESDRKIMQSQIVSFYFKLFKNFKDDQSIQKSVETIKEDMNVKFFNSNKKKRDDFEKLTNYSVTDLNVQRKAIHELIQVMAELSPAAKTGKRKRSQMLFRG"}},
  "type_in_all_cases": "cell-based",
  "key": {"STAT1": {"test_system": "STAT1", "test": "STAT1 protein expression (Western blot)", "description": "(§1) FIG. 2A is a line graph showing that knockout of STAT1 by CRISPR blocked IFNγ-induced change of drug-tolerant subpopulation size. […] FIG. 2D is a line graph showing homozygous knockout of STAT1 by CRISPR (tolerance model: PC9 treated with 2.5 μM erlotinib). […] Relative intensities were measured from by mass spectrometry experiments. FIG. 2H is a diagram of STAT1-mediated drug tolerance and type I PRMT vulnerability to eliminate drug tolerance.\nFIG. 5C is a line graph showing that STAT1 modulated cancer drug tolerance, and knockdown of STAT1 by siRNA blocked IFNγ-induced change of drug-tolerant subpopulation size. […] FIG. 5E is a bar graph showing that cancer drug treatment (EGFR drugs and other cytotoxic stressors) enhanced STAT1 expression across multiple cell lines. […] Tolerance model for FIG. 5G: PC9 treated with 2.5 μM erlotinib. FIG. 5H presents exemplary data showing differential gene expression in erlotinib-tolerant PC9 cells comparing to parental cells. The top panel of FIG. 5H is a volcano plot in which IRDS genes are shown in black. The bottom panel of FIG. 5H is a line graph showing the accumulative distribution of adjusted p-values of IRDS genes (gray) versus all genes excluding IRDS genes (black). FIG. 5I is a line graph showing the knockdown of STAT1 by siRNA. FIG. 5J is a line graph showing the homozygous knockout of STAT1 by CRISPR. Tolerance model for FIGS. 5I and 5J: PC9 treated with 2.5 μM erlotinib. […] PC9 cells were pretreated with MS023 for one day, followed by co-treatment of erlotinib, and perturbations of protein synthesis or degradation for 16 hours. Cycloheximide (CHX): protein synthesis inhibitor. Bortezomib (Bort): proteasome inhibitor. Ammonium chloride (NH4Cl)): lysosomal function inhibitor. […] FIG. 5P is a bar graph showing type I PRMTs methylate PABP2 at multiple arginine residues. Relative intensities were measured from by mass spectrometry experiments.\nWhat is the connection between type I PRMTs and IFNγ signaling-modulated drug tolerance? […] Previous work in other systems identified STAT1 or its regulator PIAS1 as direct substrates of type I PRMTs^27, though we could not find evidence for their arginine methylation in our system (data not shown)."}, "PC9 [1]": {"test_system": "PC9", "test": "Drug tolerance assay: surviving fraction of PC9 cells under continuous erlotinib", "source_text": "(§2) FIGS. 1A-1F present exemplary data showing that Type I PRMT inhibition reduced IFNγ signaling-modulated drug tolerance. FIG. 1A present a three-step approach aimed at investigating drug tolerance. FIG. 1B is a line graph showing PC9 cell viabilities under six-day treatment of various doses of erlotinib in the context of IFNγ. […] FIG. 1E is a line graph showing that inhibition of type I PRMTs by MS023 reduced cancer drug tolerance specifically in the IFNγ/STAT1 activation context (normalized to DMSO controls in corresponding IFNγ contexts). Tolerance model for FIG. 1E: PC9 treated with 2.5 μM erlotinib for six days. […] Tolerance model: PC9 treated with 2.5 μM erlotinib.\nFIGS. 4A-4F present exemplary data showing that Type I PRMT inhibition reduces IFNγ signaling-modulated drug tolerance. FIG. 4A is a line graph showing the pro-survival effects of IFNγ in a variety of cell types with the cytotoxic inducers. Six-day tolerance assay in lung cancer cells was performed under 2.5 μM erlotinib or 50 μM carboplatin. FIG. 4B is a line graph showing PC9 cells co-treated with IFNγ and cytotoxic stressors (EGFR inhibitor Gefitinib, PARP inhibitor olaparib, death ligand TRAIL, procaspase-3 activator PAC-1), and cell viabilities were measured by Cell TiterGlo after six days. FIG. 4C is a bar-graph showing PRMT1 knockdown efficiency measured by qPCR after two days of siRNA transfection. FIG. 4D is a line graph showing that inhibition of type I PRMTs by MS023 reduced cancer drug tolerance specifically in the IFNγ/STAT1 activation context (normalized to DMSO control in (−) IFNγ context). Tolerance model for FIG. 4D: PC9 treated with 2.5 μM erlotinib for six days. FIG. 4E is a line graph showing that inhibition of type I PRMTs by GSK3368715 reduced cancer drug tolerance specifically in the IFNγ/STAT1 activation context (normalized to DMSO controls in corresponding IFNγ contexts). FIG. 4F is a line graph line graphs showing that inhibition of type I PRMTs by GSK3368715 reduced cancer drug tolerance specifically in the IFNγ/STAT1 activation context (normalized to DMSO control in (−) IFNγ context). Tolerance model for FIGS. 4E and 4F: PC9 treated with 2.5 μM erlotinib for six days.\nTo investigate drug tolerance, we undertook a three-step approach (FIG. 1A). First, we established reproducible assays to monitor small subpopulations of cancer cells that survive sustained SOC drug treatment. We initially selected the well-established drug-tolerance model provided by the EGFR-mutant lung cancer cell line PC9 and EGFR inhibitor erlotinib^1,2,6. The effect of perturbations to drug tolerance was assessed by quantifying changes to the fraction of the small subpopulation of surviving (drug-tolerant) cells after approximately one week of continuous drug treatment."}, "PC9 [2]": {"test_system": "PC9", "test": "Emergence of drug-tolerant persisters, two-month co-treatment with erlotinib", "settings": "IFNγ stimulation, PC9, 2.5 μM erlotinib (FIG. 1F)", "source_text": "as §2\nThird, we searched for perturbations that reduce IFNγ-stimulated drug tolerance within a collection of compounds of known biological functions and targets. […] Thus, type I PRMT inhibition is a vulnerability of IFNγ signaling-stimulated drug tolerance."}, "[3]": {"test_system": "PC9 STAT1 knockdown / homozygous knockout cells", "test": "Drug tolerance assay in PC9 with STAT1 knockdown or knockout", "settings": "PC9 treated with 2.5 μM erlotinib", "description": "as §1\n(§3) FIG. 5C is a line graph showing that STAT1 modulated cancer drug tolerance, and knockdown of STAT1 by siRNA blocked IFNγ-induced change of drug-tolerant subpopulation size. […] FIG. 5E is a bar graph showing that cancer drug treatment (EGFR drugs and other cytotoxic stressors) enhanced STAT1 expression across multiple cell lines. […] Tolerance model for FIG. 5G: PC9 treated with 2.5 μM erlotinib. FIG. 5H presents exemplary data showing differential gene expression in erlotinib-tolerant PC9 cells comparing to parental cells. The top panel of FIG. 5H is a volcano plot in which IRDS genes are shown in black. The bottom panel of FIG. 5H is a line graph showing the accumulative distribution of adjusted p-values of IRDS genes (gray) versus all genes excluding IRDS genes (black). FIG. 5I is a line graph showing the knockdown of STAT1 by siRNA. […] Relative intensities were measured from by mass spectrometry experiments. […]"}, "STAT1 mRNA": {"test_system": "STAT1 mRNA", "test": "STAT1 mRNA level", "settings": "FIG. 5M", "description": "FIG. 5C is a line graph showing that STAT1 modulated cancer drug tolerance, and knockdown of STAT1 by siRNA blocked IFNγ-induced change of drug-tolerant subpopulation size. […] FIG. 5E is a bar graph showing that cancer drug treatment (EGFR drugs and other cytotoxic stressors) enhanced STAT1 expression across multiple cell lines. […] Tolerance model for FIG. 5G: PC9 treated with 2.5 μM erlotinib. FIG. 5H presents exemplary data showing differential gene expression in erlotinib-tolerant PC9 cells comparing to parental cells. The top panel of FIG. 5H is a volcano plot in which IRDS genes are shown in black. The bottom panel of FIG. 5H is a line graph showing the accumulative distribution of adjusted p-values of IRDS genes (gray) versus all genes excluding IRDS genes (black). FIG. 5I is a line graph showing the knockdown of STAT1 by siRNA. FIG. 5J is a line graph showing the homozygous knockout of STAT1 by CRISPR. Tolerance model for FIGS. 5I and 5J: PC9 treated with 2.5 μM erlotinib. […] PC9 cells were pretreated with MS023 for one day, followed by co-treatment of erlotinib, and perturbations of protein synthesis or degradation for 16 hours. Cycloheximide (CHX): protein synthesis inhibitor. Bortezomib (Bort): proteasome inhibitor. Ammonium chloride (NH4Cl)): lysosomal function inhibitor. […] Relative intensities were measured from by mass spectrometry experiments. […]"}, "PABP2": {"test_system": "PABP2", "test": "PABP2 arginine methylation by mass spectrometry", "settings": "mass spectrometry (FIGS. 2G, 5P, 5Q)", "description": "as §1, §3"}, "lung cancer cell lines": {"test_system": "lung cancer cell lines", "test": "Drug tolerance in lung cancer cell models", "description": "FIGS. 3A-3D present exemplary data showing that Type I PRMT inhibition enhanced cancer drug efficacy. […] FIGS. 3B-3D present data showing the correlation between endogenous STAT1 expression levels and the efficacy of type I PRMT inhibition. […] Gray dots indicate cell lines that were tested for the efficacies of type I PRMT inhibition (by MS023).\n(§4) Can type I PRMT inhibition provide a general strategy for reducing drug tolerance and enhance efficacies of SOC drugs? STAT1 signaling can be activated by various sources in tumors, including interferon (IFN)-producing immune cells in the tumor microenvironment, endogenous nucleic acids, and cancer therapeutics (FIG. 2H)^31. […] We also observed efficacy of MS023 with gemcitabine in various pancreatic cancer cell lines (FIG. 6A)."}, "[4]": {"test_system": "pancreatic cancer cell lines", "test": "Drug tolerance in gemcitabine-treated pancreatic cancer cell lines", "settings": "FIG. 6A", "source_text": "FIGS. 6A-6E present exemplary data showing that Type I PRMT inhibition enhances cancer drug efficacy.\nas §4"}, "PD-L1 [5]": {"test_system": "PD-L1", "test": "PD-L1 expression in MGH119", "settings": "lung cancer cell MGH119 (FIG. 12A)"}, "PD-L1 [6]": {"test_system": "PD-L1", "test": "PD-L1 expression in MIAPACA2", "settings": "pancreatic cancer cell MIAPACA2 (FIG. 12B)"}, "[7]": {"test_system": "solid tumors with wild type splicing factors (e.g. SRSF2, SF3B1, U2AF1)", "test": "Proliferation of solid tumors with wild type splicing factors", "settings": "FIG. 9"}, "[8]": {"test_system": "AKT, ERK and STAT3 pathway", "test": "EGFR bypass signaling (AKT, ERK and STAT3 pathway)", "settings": "FIG. 5A"}},
  "data": [
    {"molecule": "C#Cc1cccc(Nc2ncnc3cc(OCCOC)c(OCCOC)cc23)c1", "note": "[erlotinib]", "values": [
      {"measurement": "total STAT1 as opposed to P-STAT1", "setting": "STAT1; combined with IFNγ, PC9 cells (FIG. 5D)", "result": "synergizes with IFNγ to increase total STAT1"}
    ]},
    {"molecule": "CC(C)Oc1ccc(-c2c[nH]cc2CN(C)CCN)cc1", "note": "[MS023]", "values": [
      {"measurement": "effect on reducing drug tolerance, dependence on IFNγ", "setting": "PC9 [1]; PC9 treated with 2.5 μM erlotinib for six days, with or without IFNγ (FIGS. 1E, 4D-4F)", "result": "only observed in the presence of IFNγ stimulation"},
      {"measurement": "drug tolerance in the PC9/erlotinib model system", "setting": "PC9 [1]; across a wide range of IFNγ concentrations (FIG. 1C)", "result": "reduced drug tolerance"},
      {"measurement": "expansion of drug-tolerant cells (persisters)", "setting": "PC9 [2]", "result": "durably reduced the expansion of drug-tolerant cells"},
      {"measurement": "efficacy on drug tolerance in STAT1 homozygous knockout cells", "setting": "[3]; CRISPR STAT1 knockout (FIGS. 2D, 5J)", "result": "no efficacy"},
      {"measurement": "efficacy on drug tolerance after STAT1 knockdown", "setting": "[3]; STAT1 siRNA (FIG. 5I)", "result": "dramatically compromised"},
      {"measurement": "mechanism of the reduction of STAT1 expression", "setting": "STAT1; PC9 pretreated one day, then erlotinib plus cycloheximide, bortezomib or NH4Cl for 16 hours (FIG. 5N)", "result": "alteration in protein synthesis"},
      {"measurement": "total STAT1 protein level", "setting": "STAT1; independent of IFNγ or erlotinib, multiple cancer cell lines (FIGS. 2E, 5K, 5L)", "result": "downregulated total STAT1 protein level"},
      {"measurement": "STAT1 mRNA", "setting": "STAT1 mRNA", "result": "did not reduce STAT1 mRNA"},
      {"measurement": "dimethylation of PABP2 arginine residues", "setting": "PABP2", "result": "reduced the detected dimethylation of PABP2"},
      {"measurement": "drug tolerance in osimertinib-treated lung cancers", "setting": "lung cancer cell lines; EGFR mutant cell lines with T790M resistance mutation, IFNγ stimulation (FIG. 3A middle)", "result": "reduced drug tolerance"},
      {"measurement": "drug tolerance in carboplatin-treated lung cancers", "setting": "lung cancer cell lines; EGFR wild type cell lines, IFNγ stimulation (FIG. 3A bottom)", "result": "reduced drug tolerance"},
      {"measurement": "IC50 on reducing drug tolerance", "setting": "lung cancer cell lines; lung (erlotinib, osimertinib, carboplatin) and pancreatic (gemcitabine) cancer cell models, IFNγ stimulation", "result": "sub- to low-micromolar range"},
      {"measurement": "drug tolerance in erlotinib-treated lung cancers", "setting": "lung cancer cell lines; multiple EGFR mutant cell lines, IFNγ stimulation (FIG. 3A top)", "result": "reduced drug tolerance"},
      {"measurement": "drug tolerance in gemcitabine-treated pancreatic cancers", "setting": "[4]", "result": "reduced drug tolerance"},
      {"measurement": "expression of immune checkpoint protein PD-L1", "setting": "PD-L1 [5]", "result": "reduced the expression"},
      {"measurement": "expression of immune checkpoint protein PD-L1", "setting": "PD-L1 [6]", "result": "reduced the expression"},
      {"measurement": "proliferation", "setting": "[7]", "result": "reduced the proliferation"}
    ]},
    {"molecule": "B1", "values": [
      {"measurement": "drug tolerance at relatively low doses", "setting": "PC9 [1]; PC9/erlotinib and other models of tolerance (FIGS. 1B, 4A, 4B)", "result": "increase tolerance"},
      {"measurement": "drug tolerance at relatively high doses", "setting": "PC9 [1]; PC9/erlotinib, six-day treatment (FIG. 1B)", "result": "decreases drug tolerance"},
      {"measurement": "STAT1 signaling (phosphorylation of STAT1, IRF1 transcription, STAT1 upregulation)", "setting": "STAT1; PC9-erlotinib model system (FIG. 5B)", "result": "activates STAT1 signaling"},
      {"measurement": "reactivation of major EGFR bypass signaling", "setting": "[8]", "result": "did not observe the reactivation"}
    ]}
  ]
}
